Values after ≈ are worked out from the molar mass of the structure shown.
Tests used:
[1] = system: E. faecalis LMG16216 (VRE); test: Spot-on-lawn assay; type: cell-based; conditions: triplicate
L. monocytogenes TT82E = test: Spot-on-lawn assay; type: cell-based; conditions: triplicate
S. aureus LMG10147 = test: Spot-on-lawn assay; type: cell-based; conditions: triplicate
Enterococcus faecium = test: Agar well diffusion assay against Enterococcus faecium; type: cell-based; conditions: for Antibacterial activity against Enterococcus faecium (in words): Figure 5, HPLC-purified peptide, 30 μL of 0.1 mg mL^–1 per well
Method: (§1) To confirm that this procedure yields the modified nisin and at high purity, HPLC analysis of purified 47 was performed (Figure S2). Based on the area of the peaks, the purity of 47 is 96%. Subsequently, 30 μL of 0.1 mg mL^–1 purified compound was added to the well to assess their activity.
(§2) Cultures grown overnight were introduced into 0.8% LB agar for Listeria monocytogenes or GM17 agar for Enterococcus faecium at a temperature of 45 °C, reaching a final concentration of 0.1% (v/v). Subsequently, 30 mL of the mixture was poured onto the plate. Upon solidification of the agar, 8 mm wells were created, and 30 μL of the aforementioned clicked solutions was spotted into the wells. The agar plate underwent overnight incubation at 37 °C followed by measurement of inhibition zones. By comparing the antimicrobial impact of the click chemistry products in this screening assay, we assume that the yields of the different reactions are similar. Zone diameters were recorded in millimeters, with the zone area (πr^2) minus the well area (πr^2) measured in millimeters.[44]

[2] = system: E. faecium ATCC E1321 (AGRE); test: Spot-on-lawn assay; type: cell-based; conditions: triplicate
[3] = system: E. faecium ATCC E1162 (ARE); test: Spot-on-lawn assay; type: cell-based; conditions: triplicate
[4] = system: S. aureus LMG15975 (MRSA); test: Spot-on-lawn assay; type: cell-based; conditions: triplicate
E. faecium LMG11423 = test: Spot-on-lawn assay; type: cell-based; conditions: triplicate
Listeria monocytogenes = test: Agar well diffusion assay against Listeria monocytogenes; type: cell-based; conditions: Figure 4, second round; 30 μL click reaction solution in 8 mm well, LB agar, overnight 37 °C; triplicate
Method: as §1, §2

[5] = system: E. faecium LMG16003 (VRE); test: Spot-on-lawn assay; type: cell-based; conditions: triplicate
[6] = system: E. faecium ATCC U0317 (ACRE); test: Spot-on-lawn assay; type: cell-based; conditions: triplicate
Escherichia coli CECT101 = test: Spot-on-lawn assay; type: cell-based; conditions: triplicate
B. cereus CH-85 = test: Spot-on-lawn assay; type: cell-based; conditions: triplicate
[7] = system: L. monocytogenes LMG10470; test: Spot-on-lawn assay; type: cell-based; conditions: triplicate
human red blood cells = test: Hemolysis assay; type: cell-based; conditions: 200 mg/L versus MIC
Method: Considering the potential therapeutic application of a bacteriocin, ensuring its safety is of critical importance. Previous studies have identified hemolytic activities in certain bacteriocins, such as listeriolysin S from Listeria monocytogenes([33]) and cytolysin from Enterococcus faecalis.[34] […] Therefore, a close evaluation of the safety of new bacteriocins is essential. In this study, a hemolytic activity assay was conducted to assess the safety of compounds 16 and 47. In this assay, human blood cells were incubated with varying concentrations of compound 16, compound 47, and nisin, ranging from 0.39 to 200 mg/L. Following a 1 h incubation at 37 °C, we measured the OD414 of the supernatants, and hemolytic activities were calculated, with 10% Triton X-100 serving as a positive control.
Erythrocytes were sourced from a healthy human volunteer donor, and whole human blood was subjected to centrifugation at 600g for 15 min. Subsequently, plasma was removed, and the erythrocytes were subjected to three washes with PBS (pH 7) by centrifugation at 600g for 15 min each. […] The supernatant was transferred to a 96-well plate, and absorbance was measured at a wavelength of 414 nm using a Thermo Scientific Varioskan LUX multimode microplate reader. The absorbance, relative to the positive control treated with 10% Triton X-100, was defined as the percentage of hemolysis.

[8] = system: Enterococcus faecium LMG16003 (VRE); type: cell-based; conditions: as stated in the abstract
Method: Minimal inhibitory concentration (MIC) values were determined through broth microdilution following standard guidelines.[29]

[9] = Effect of temperature on antibacterial activity (thermal stability); type: physicochemical; conditions: higher temperatures of 22, 55, 70, 90 °C, 8 h storage; read-out inhibition zone area on L. lactis MG1363 relative to 0 h; three independent experiments
Method: Figure S4. Investigation of the thermal stability profile of nisin (compound 1) and compound 47. Thermal stability was evaluated across a temperature range from 22 to 90 °C within an 8-hour incubation period.
Relative antimicrobial activity of the peptides following exposure to different temperatures. The relative activity was determined by calculating the area at different time points divided by the area at the start point (labeled 0 h), multiplied by 100%. Three independent experiments were conducted.

chymotrypsin = test: Effect of proteolytic enzymes on antibacterial activity: chymotrypsin; conditions: 30 μL peptide 1 mg mL^–1 in agar well with 1 mg mL^–1 chymotrypsin, pH 7.2, overnight 30 °C; read-out inhibition zone area on L. lactis MG1363 versus no-enzyme control; three independent experiments
Method: (§3) Next the resistance against the proteolytic enzymes trypsin, chymotrypsin, and protease K was investigated by adding these enzymes in separate experiments to assay wells followed by overnight incubation at 30 °C.
(§4) The impact of proteolytic enzymes and temperature on antimicrobial activity was investigated using the representative strain L. lactis MG1363 through the agar well diffusion assay. Thirty microliters of the HPLC purified peptide (1 mg mL^–1) was directly introduced into the agar well containing a final concentration of 1 mg mL^–1 proteolytic enzymes (pH 7.2) or no proteolytic enzyme (control). The plates were incubated overnight at 30 °C followed by the measurement of inhibition zones. Temperature stability was assessed by incubating the peptide at 22, 55, 70, and 90 °C for the specified duration.

[10] = Spot-on-lawn assay to measure peptide-lipid II complex formation; type: binding; conditions: lipid II 300 μM, 2 μL spotted at edge of halo; lawns of E. faecium and S. aureus, overnight 37 °C
Method: To assess the interaction between the HPLC purified peptide and lipid II, an overnight culture was introduced into 0.8% GM17 medium for E. faecium or LB medium for S. aureus (w/v, temperature 45 °C) at a final concentration of 1% (v/v). Subsequently, this mixture was evenly distributed onto 10 mL plates. The binding affinity of the peptide and lipid II was further examined by applying purified lipid II (300 μM, 2 μL) to the periphery of the antibiotic inhibition halo. Briefly, HPLC purified antimicrobials were initially applied to the agar plate, and once the antimicrobial solution drops had dried, lipid II was spotted along the edge of the inhibition halo. The plates were then incubated overnight at 37 °C.

proteinase K = proteinase K (Parengyodontium album, UniProt P06873); test: Effect of proteolytic enzymes on antibacterial activity: proteinase K; conditions: 30 μL peptide 1 mg mL^–1 in agar well with 1 mg mL^–1 proteinase K, pH 7.2, overnight 30 °C; read-out inhibition zone area on L. lactis MG1363 versus no-enzyme control; three independent experiments
Method: as §3, §4

Chain of proteinase K (P06873 106-384): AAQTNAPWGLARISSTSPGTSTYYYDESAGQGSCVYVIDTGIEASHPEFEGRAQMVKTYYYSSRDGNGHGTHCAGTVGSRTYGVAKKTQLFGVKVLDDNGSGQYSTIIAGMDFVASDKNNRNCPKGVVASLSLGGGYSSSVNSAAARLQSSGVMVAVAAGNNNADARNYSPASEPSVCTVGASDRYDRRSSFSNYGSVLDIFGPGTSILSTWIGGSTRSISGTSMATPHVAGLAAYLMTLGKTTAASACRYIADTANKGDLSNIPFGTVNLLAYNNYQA

SMILES	Antimicrobial activity, diameter rating [1]	Antimicrobial activity, diameter rating (L. monocytogenes TT82E)	Antimicrobial activity, diameter rating (S. aureus LMG10147)	Antibacterial activity against Enterococcus faecium (in words) (Enterococcus faecium)	Antimicrobial activity, diameter rating [2]	Antimicrobial activity, diameter rating [3]	Antimicrobial activity, diameter rating [4]	Antimicrobial activity, diameter rating (E. faecium LMG11423)	Antimicrobial activity, diameter rating [5]	Antimicrobial activity, diameter rating [6]	Antimicrobial activity, diameter rating (Escherichia coli CECT101)	Antimicrobial activity, diameter rating (B. cereus CH-85)	Antimicrobial activity, diameter rating [7]	other results
C=C(NC(=O)[C@@H](NC(=O)[C@H](Cc1c[nH]cn1)NC(=O)[C@@H](NC(=O)[C@H](CO)NC(=O)[C@@H]1CS[C@@H](C)[C@H]2NC(=O)[C@H](C)NC(=O)[C@H](NC(=O)[C@H](CCCCN)NC(=O)[C@@H](NC(=O)[C@H](CC(N)=O)NC(=O)[C@@H]3CS[C@@H](C)[C@@H](NC(=O)[C@H](CCCCN)NC(=O)[C@@H]4CS[C@@H](C)[C@@H](NC(=O)[C@@H]5CSC[C@@H](NC(=O)/C(=C/C)NC(=O)[C@@H](N)[C@@H](C)CC)C(=O)N[C@@H]([C@@H](C)CC)C(=O)NC(=C)C(=O)N[C@@H](CC(C)C)C(=O)N5)C(=O)N5CCC[C@H]5C(=O)NCC(=O)N4)C(=O)NCC(=O)N[C@@H](C)C(=O)N[C@@H](CC(C)C)C(=O)N[C@@H](CCn4cc(CCCCCCCC)nn4)C(=O)NCC(=O)N3)C(C)C)[C@H](C)SC[C@H](NC2=O)C(=O)N[C@@H](Cc2c[nH]cn2)C(=O)N1)[C@@H](C)CC)C(C)C)C(=O)N[C@@H](CCCCN)C(=O)O [compound 16]	++ (4–8 mm, + +)	++ (4–8 mm, + +)	+ (0–4 mm, +)	high potency of nisin against Enterococcus faecium was retained	++++ (12–16 mm, ++++)	++++ (12–16 mm, ++++)	+ (0–4 mm, +)	+++++ (16–20 mm, +++++)	++++ (12–16 mm, ++++)	++++ (12–16 mm, ++++)	+ (0–4 mm, +)	++ (4–8 mm, + +)	++ (4–8 mm, + +)	Area1: area of the inhibition zone minus the well area, Enterococcus faecium (Enterococcus faecium; Figure 4, second round, 30 μL click reaction solution in 8 mm well, GM17 agar, overnight 37 °C, triplicate): 51 mm^2; Area2: area of the inhibition zone minus the well area, Listeria monocytogenes (Listeria monocytogenes): 19 mm^2
C=C(NC(=O)[C@@H](NC(=O)[C@H](Cc1c[nH]cn1)NC(=O)[C@@H](NC(=O)[C@H](CO)NC(=O)[C@@H]1CS[C@@H](C)[C@H]2NC(=O)[C@H](C)NC(=O)[C@H](NC(=O)[C@H](CCCCN)NC(=O)[C@@H](NC(=O)[C@H](CC(N)=O)NC(=O)[C@@H]3CS[C@@H](C)[C@@H](NC(=O)[C@H](CCCCN)NC(=O)[C@@H]4CS[C@@H](C)[C@@H](NC(=O)[C@@H]5CSC[C@@H](NC(=O)/C(=C/C)NC(=O)[C@@H](N)[C@@H](C)CC)C(=O)N[C@@H]([C@@H](C)CC)C(=O)NC(=C)C(=O)N[C@@H](CC(C)C)C(=O)N5)C(=O)N5CCC[C@H]5C(=O)NCC(=O)N4)C(=O)NCC(=O)N[C@@H](C)C(=O)N[C@@H](CC(C)C)C(=O)N[C@@H](CCn4cc(CCCc5ccccc5)nn4)C(=O)NCC(=O)N3)C(C)C)[C@H](C)SC[C@H](NC2=O)C(=O)N[C@@H](Cc2c[nH]cn2)C(=O)N1)[C@@H](C)CC)C(C)C)C(=O)N[C@@H](CCCCN)C(=O)O [compound 47]	++ (4–8 mm, + +)	++ (4–8 mm, + +)	+ (0–4 mm, +)	high potency of nisin against Enterococcus faecium was retained	++++ (12–16 mm, ++++)	++++ (12–16 mm, ++++)	+ (0–4 mm, +)	+++++ (16–20 mm, +++++)	++++ (12–16 mm, ++++)	++++ (12–16 mm, ++++)	+ (0–4 mm, +)	++ (4–8 mm, + +)	++ (4–8 mm, + +)	Concentration with minimal hemolytic activity (200 mg/L) relative to MIC against Enterococcus faecium (human red blood cells): 50 fold; MIC value against E. faecium strains [8]: 3.8 µg/mL (≈ 1.1 µM); Loss in antimicrobial activity on storage at elevated temperature [9]: Less than 40%; Loss in antimicrobial activity after exposure to chymotrypsin (chymotrypsin): 16%; Binding to lipid II (effect of added purified lipid II on the inhibition halo) [10]: retained its ability to bind to lipid II; Loss in antimicrobial activity after exposure to proteinase K (proteinase K): 77%
